# Active and inactive are the calls of the source.
# How the values were obtained:
# [1] = HepG2 cell cytotoxicity, dose response, cytotoxicity control for Shn3 inhibitor project, CellTiter-Glo, cherry-picked (AID 624134); format: functional, cell-based
# [2] = control 3'UTR Renilla luciferase suppression, dose response, counter-screen for Shn3 inhibitor project, cell-based, Clone20-Shn3RL, cherry-picked (AID 624133); format: functional
# Genome polyprotein = Genome polyprotein (dengue virus type 2, UniProt P29990); experiment: Dengue-2 NS5 methyltransferase inhibitors, primary screen, biochemical, confirmation dose response (AID 588689); format: functional
# Nonstructural protein 1 = Nonstructural protein 1 (Influenza A virus, UniProt Q194T2); format: functional, Influenza A virus (A/California/07/2009(H1N1))
# Sequence of Nonstructural protein 1 (Q194T2 whole entry): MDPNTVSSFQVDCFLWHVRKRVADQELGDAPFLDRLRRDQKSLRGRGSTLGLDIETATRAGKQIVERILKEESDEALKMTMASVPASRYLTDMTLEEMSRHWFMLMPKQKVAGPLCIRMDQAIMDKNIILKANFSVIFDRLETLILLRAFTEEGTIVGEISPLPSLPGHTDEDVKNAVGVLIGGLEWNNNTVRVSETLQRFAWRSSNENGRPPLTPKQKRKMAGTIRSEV
# [3] = biological target: C-C chemokine receptor type 6 (Homo sapiens, UniProt P51684); experiment: CCR6 receptor antagonists, dose response, cell-based, luminescent beta-arrestin readout (AID 504728); format: functional
# Sequence of C-C chemokine receptor type 6 (P51684 whole entry): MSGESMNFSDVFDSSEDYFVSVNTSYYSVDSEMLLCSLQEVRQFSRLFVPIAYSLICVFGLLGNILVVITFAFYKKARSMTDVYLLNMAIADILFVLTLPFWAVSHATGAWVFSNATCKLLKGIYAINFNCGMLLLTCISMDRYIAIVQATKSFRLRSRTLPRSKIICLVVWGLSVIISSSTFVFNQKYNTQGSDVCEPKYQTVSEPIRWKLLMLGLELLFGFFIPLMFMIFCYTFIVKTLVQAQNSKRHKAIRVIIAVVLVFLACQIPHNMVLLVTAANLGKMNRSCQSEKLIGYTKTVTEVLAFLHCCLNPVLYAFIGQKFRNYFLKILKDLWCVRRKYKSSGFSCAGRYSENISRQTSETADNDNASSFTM
# [4] = THP-1 cell cytotoxicity, dose response, cytotoxicity control for Vif-APOBEC3G degradation inhibitor project, THP-1 cells (AID 1117359); format: functional; settings: Human immunodeficiency virus 1, THP-1
# Beta-galactosidase = Beta-galactosidase (Escherichia coli, UniProt Q8VNN2); experiment: beta-galactosidase enzyme inhibitors and activators, dose response, artefact control for CCR6 antagonist project, biochemical, E. coli enzyme, set 3 (AID 504712); format: functional
# Sequence of Beta-galactosidase (Q8VNN2 whole entry): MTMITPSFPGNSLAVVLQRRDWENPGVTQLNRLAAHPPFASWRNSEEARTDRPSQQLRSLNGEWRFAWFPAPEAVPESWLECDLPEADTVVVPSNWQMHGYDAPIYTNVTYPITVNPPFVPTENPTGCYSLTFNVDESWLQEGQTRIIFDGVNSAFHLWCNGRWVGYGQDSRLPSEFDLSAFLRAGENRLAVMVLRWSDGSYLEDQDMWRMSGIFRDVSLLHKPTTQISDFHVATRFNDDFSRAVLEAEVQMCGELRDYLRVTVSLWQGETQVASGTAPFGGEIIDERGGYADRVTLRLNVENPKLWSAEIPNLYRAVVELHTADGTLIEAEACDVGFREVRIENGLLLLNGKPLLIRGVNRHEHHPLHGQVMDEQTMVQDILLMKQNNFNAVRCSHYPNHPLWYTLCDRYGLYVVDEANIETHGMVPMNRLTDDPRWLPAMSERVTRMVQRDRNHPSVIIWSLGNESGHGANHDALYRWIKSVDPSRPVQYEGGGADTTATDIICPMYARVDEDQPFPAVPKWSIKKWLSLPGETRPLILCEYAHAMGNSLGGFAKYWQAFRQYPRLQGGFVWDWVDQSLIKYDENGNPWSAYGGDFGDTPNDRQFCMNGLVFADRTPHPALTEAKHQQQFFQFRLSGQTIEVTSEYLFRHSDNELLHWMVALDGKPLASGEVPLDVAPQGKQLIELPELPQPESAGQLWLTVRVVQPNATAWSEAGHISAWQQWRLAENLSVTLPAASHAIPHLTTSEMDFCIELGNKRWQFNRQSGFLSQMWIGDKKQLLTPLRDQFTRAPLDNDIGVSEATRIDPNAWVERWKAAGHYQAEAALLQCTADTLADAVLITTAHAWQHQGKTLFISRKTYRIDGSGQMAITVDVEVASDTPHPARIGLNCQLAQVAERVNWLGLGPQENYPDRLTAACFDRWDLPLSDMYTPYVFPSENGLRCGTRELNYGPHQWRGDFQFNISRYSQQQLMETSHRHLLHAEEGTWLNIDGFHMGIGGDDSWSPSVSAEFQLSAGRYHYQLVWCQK
# [5] = Shn3 3'UTR reporter inhibitors, dose response, cell-based, Clone20 osteoblasts, firefly luciferase, cherry-picked (AID 624132); format: functional;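 note: firefly luciferase luminescence from reporter carrying the Shn3 3'UTR in osteoblasts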
# [6] = biological target: Glutathione-S-transferase (Schistosoma japonicum, UniProt Q26513); experiment: biotin-GST/anti-GST TR-FRET signal inhibitors, dose response, artefact control for Vif-APOBEC3G degradation inhibitor project, biochemical (AID 1117362); format: functional
# [7] = biological target: Glucose-6-phosphate 1-dehydrogenase (Homo sapiens, UniProt P11413); experiment: human G6PD enzyme inhibitors, dose response, selectivity assay for P. falciparum G6PD inhibitor project, biochemical, fluorescence (AID 504792); format: functional
# [8] = human group III sPLA2 inhibitors, dose response, biochemical, QFRET, IC50 (AID 743457);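 note: green fluorescence rise as the enzyme cleaves BODIPY PC-A2 in liposomes; potency for inhibition of the enzyme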
# Vero = Vero cell cytotoxicity, cytotoxicity control for flavivirus capping enzyme inhibitors (AID 588742); format: functional; settings: Chlorocebus sabaeus
# Estrogen receptor beta [9] = biological target: T1, Estrogen receptor beta (Homo sapiens, UniProt Q92731);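 note: recombinant ER-beta bound to coactivator SRC1 peptide in presence of estradiol agonist; inhibitors block coactivator peptide binding and lower the FRET signal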
# T1 sequence (Q92731 whole entry): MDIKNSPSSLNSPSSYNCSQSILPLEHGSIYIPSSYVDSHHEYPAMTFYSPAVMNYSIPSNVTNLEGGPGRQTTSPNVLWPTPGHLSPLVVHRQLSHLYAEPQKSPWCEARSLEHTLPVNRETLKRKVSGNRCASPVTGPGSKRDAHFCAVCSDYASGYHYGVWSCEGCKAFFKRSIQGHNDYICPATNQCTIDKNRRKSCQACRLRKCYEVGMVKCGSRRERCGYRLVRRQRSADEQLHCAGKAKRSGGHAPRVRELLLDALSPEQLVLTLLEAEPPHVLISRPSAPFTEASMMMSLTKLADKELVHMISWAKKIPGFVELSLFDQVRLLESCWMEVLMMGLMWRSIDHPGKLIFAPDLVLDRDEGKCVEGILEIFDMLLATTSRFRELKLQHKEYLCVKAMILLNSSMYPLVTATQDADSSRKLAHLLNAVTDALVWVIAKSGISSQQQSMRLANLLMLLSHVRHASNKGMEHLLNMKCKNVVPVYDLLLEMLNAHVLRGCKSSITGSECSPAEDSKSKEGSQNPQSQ
# Estrogen receptor = Estrogen receptor (Homo sapiens, UniProt P03372);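 note: potency for inhibiting coactivator peptide recruitment to the receptor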
# [10] = biological target: FAD-linked sulfhydryl oxidase ALR (Homo sapiens, UniProt P55789); experiment: inhibitors of human ALR sulfhydryl oxidase, dose response, biochemical, H2O2 detection, luminescence, cherry-pick (AID 493248)
# Sequence of FAD-linked sulfhydryl oxidase ALR (P55789 whole entry): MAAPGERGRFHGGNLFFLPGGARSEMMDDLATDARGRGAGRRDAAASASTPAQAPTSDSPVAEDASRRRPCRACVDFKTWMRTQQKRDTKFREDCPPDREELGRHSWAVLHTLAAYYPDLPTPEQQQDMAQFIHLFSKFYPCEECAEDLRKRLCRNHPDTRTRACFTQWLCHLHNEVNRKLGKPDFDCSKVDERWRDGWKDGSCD
# [11] = biological target: Neuropeptide Y receptor type 2 (Homo sapiens, UniProt P49146); experiment: NPY-Y2 antagonist potency, selectivity check, dose response, counter-screen for NPY-Y1 antagonist project, cell-based (AID 1278); format: functional
# Sequence of Neuropeptide Y receptor type 2 (P49146 whole entry): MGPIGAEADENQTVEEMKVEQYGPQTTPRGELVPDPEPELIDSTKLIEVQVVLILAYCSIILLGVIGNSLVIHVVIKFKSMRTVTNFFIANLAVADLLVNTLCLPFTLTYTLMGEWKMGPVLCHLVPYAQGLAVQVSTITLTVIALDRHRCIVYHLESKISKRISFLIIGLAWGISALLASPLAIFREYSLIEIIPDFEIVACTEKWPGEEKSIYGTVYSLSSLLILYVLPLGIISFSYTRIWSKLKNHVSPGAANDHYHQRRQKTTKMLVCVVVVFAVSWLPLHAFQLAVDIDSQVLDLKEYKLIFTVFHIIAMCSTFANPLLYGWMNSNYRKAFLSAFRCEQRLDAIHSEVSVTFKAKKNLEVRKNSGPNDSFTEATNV
# [12] = biological target: Neuropeptide Y receptor type 1 (Homo sapiens, UniProt P25929); experiment: NPY-Y1 receptor antagonist potency, dose response, cell-based (AID 1277); format: functional
# Sequence of Neuropeptide Y receptor type 1 (P25929 whole entry): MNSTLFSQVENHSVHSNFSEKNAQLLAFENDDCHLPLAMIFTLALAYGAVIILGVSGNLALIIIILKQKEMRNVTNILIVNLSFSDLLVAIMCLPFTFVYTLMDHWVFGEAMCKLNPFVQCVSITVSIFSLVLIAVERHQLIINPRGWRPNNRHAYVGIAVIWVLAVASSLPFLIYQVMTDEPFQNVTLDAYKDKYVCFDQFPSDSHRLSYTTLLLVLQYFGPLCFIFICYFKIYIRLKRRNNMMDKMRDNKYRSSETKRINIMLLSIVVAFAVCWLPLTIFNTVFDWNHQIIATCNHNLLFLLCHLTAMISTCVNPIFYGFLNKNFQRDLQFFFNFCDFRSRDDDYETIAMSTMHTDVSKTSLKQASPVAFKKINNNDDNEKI
# [13] = C. albicans growth with fluconazole, confirmation, fluorescence, retest (AID 2467); format: functional, cell-based
# Ephrin type-A receptor 4 = Ephrin type-A receptor 4 (Mus musculus, UniProt Q03137); experiment: inhibitors of EphA4 binding to KYL peptide, primary screen, biochemical, colorimetric, mouse EphA4 (AID 689); format: functional
# [14] = NIH-3T3 fibroblast cytotoxicity, dose response, cytotoxicity control, cell-based, fluorescence, Alamar Blue, secondary assay (AID 2327); format: functional;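 note: NIH-3T3 mouse fibroblasts cultured with fluconazole at 8 µg/mL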
# cells [15] = experiment: cells
# BJ [16] = experiment: cytotoxicity toward BJ-TERT-LT-ST fibroblasts, dose response, cell-based, RAS-independent, luminescence (AID 1935); format: functional; settings: Homo sapiens;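 note: BJ fibroblasts immortalized with TERT plus LT and ST oncogenes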
# [17] = biological target: Voltage-dependent T-type calcium channel subunit alpha-1H (Homo sapiens, UniProt O95180); format: functional;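 note: channel activity triggered by adding a high calcium stimulation buffer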
# BJ [18] = experiment: cells; format: functional, cell-based; settings: Homo sapiens
# [19] = cytotoxicity toward DRD oncogenic fibroblasts, dose response, cell-based, non-viral oncogenic, luminescence (AID 1934); format: functional; settings: Homo sapiens
# [20] = inhibitors of intracellular T. cruzi replication, confirmation, NIH3T3 host cells, beta-gal luminescence (AID 2044); format: functional, cell-based;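 note: intracellular parasites grown in NIH/3T3 mouse fibroblasts as host cells; luminescent beta-galactosidase reporter signal from transgenic T. cruzi replicating inside host cells; inhibitors lower the luminescence signal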
# BJ [21] = experiment: cytotoxicity toward BJ-TERT fibroblasts, dose response, cell-based, RAS-independent, luminescence (AID 1933); format: functional; settings: Homo sapiens
# [22] = biological target: T2, Calpain-2 catalytic subunit (Sus scrofa, UniProt P43367); experiment: pig calpain II inhibitor potency, dose response, biochemical, fluorogenic peptide substrate (AID 1420); format: functional
# T2 sequence (P43367 whole entry): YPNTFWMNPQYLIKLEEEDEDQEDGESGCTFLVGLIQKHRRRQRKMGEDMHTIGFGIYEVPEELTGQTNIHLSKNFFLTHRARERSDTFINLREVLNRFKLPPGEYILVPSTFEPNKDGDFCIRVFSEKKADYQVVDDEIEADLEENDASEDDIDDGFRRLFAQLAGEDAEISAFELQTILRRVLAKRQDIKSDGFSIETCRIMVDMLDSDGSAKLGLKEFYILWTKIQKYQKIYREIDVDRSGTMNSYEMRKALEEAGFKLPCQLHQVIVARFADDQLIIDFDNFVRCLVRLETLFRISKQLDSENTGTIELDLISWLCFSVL
# Cytochrome P450 3A4 = Cytochrome P450 3A4 (Homo sapiens, UniProt P08684);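 note: CYP3A4 tested as one member of a cytochrome P450 panel screen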
# [23] = cytotoxicity toward NIH3T3 fibroblasts, dose response, counter-screen, cell-based, ATP luminescence, mouse fibroblasts (AID 2010); format: functional;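 note: cells exposed to compound for about 90 hours before reading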
# [24] = cytotoxicity in HPDE-C7 cells, cell-based, fluorescence, HTS (AID 430); format: functional; settings: Homo sapiens
# Estrogen receptor beta [25] = biological target: T1, Estrogen receptor beta; experiment: ERβ–SRC-3 coactivator interaction inhibitors, confirmation, orthogonal assay, biochemical, ELISA, streptavidin-HRP readout (AID 1060)
# [26] = cytotoxicity in KRAS-transformed pancreatic duct cells, primary screen, cell-based, fluorescence, HTS (AID 431); format: functional; settings: Homo sapiens;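 note: cell line used: HPDE-C7K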
# HeLa = experiment: HeLa cell cytotoxicity, dose response, cytotoxicity control, 24 h, cherry-picked samples (AID 504726); format: functional, cell-based; settings: Homo sapiens;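 note: potency for cytotoxicity as loss of luminescence signal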
# HT-1080 = experiment: cytotoxicity in HT1080 fibrosarcoma cells, cell-based, fluorescence readout (AID 620); format: functional; settings: Homo sapiens
# [27] = biological target: T3, Heat shock factor protein 1 (Mus musculus, UniProt P38532); experiment: inhibition of MG132-induced HSE-luciferase signal, confirmation, cell-based, NIH3T3, luminescence, dose retest (AID 2382); format: functional;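 note: NIH3T3 fibroblasts with HSF1-driven luciferase reporter stressed by proteasome inhibitor MG132; luminescence from HSF1-driven luciferase expression after 8 hours of MG132 stress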
# T3 sequence (P38532 whole entry): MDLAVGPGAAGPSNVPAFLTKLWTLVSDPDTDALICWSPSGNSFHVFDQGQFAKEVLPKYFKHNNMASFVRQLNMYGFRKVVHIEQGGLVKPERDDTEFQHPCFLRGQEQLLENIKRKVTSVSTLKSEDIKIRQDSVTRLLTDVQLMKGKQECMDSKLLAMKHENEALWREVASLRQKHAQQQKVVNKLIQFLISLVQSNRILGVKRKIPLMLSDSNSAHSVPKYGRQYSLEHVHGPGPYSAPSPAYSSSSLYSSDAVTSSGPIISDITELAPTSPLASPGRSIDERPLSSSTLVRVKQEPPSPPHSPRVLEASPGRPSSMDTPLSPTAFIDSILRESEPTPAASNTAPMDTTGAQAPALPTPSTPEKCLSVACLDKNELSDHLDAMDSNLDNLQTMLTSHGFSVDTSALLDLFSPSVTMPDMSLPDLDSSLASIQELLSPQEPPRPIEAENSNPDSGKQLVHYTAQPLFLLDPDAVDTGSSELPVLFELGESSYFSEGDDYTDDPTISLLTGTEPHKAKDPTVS
# [28] = Luminescence-based counterscreen assay for KLF5 inhibitors: dose response cell-based high throughput screening assay to identify cytotoxic compounds using the IEC-6 intestinal epithelial cell line. [Related pubchem assays: 1700 (Primary screen.), 1834 (Confirmation screen.), 1858 (Summary AID.), 1905 (Counterscreen.)]; format: functional
# [29] = biological target: Luciferin 4-monooxygenase (Photinus pyralis, UniProt P08659); experiment: Counter Screen for Luciferase-based Assay Positives. [Related pubchem assays: 620, 618, 411 ]
# Sequence of Luciferin 4-monooxygenase (P08659 whole entry): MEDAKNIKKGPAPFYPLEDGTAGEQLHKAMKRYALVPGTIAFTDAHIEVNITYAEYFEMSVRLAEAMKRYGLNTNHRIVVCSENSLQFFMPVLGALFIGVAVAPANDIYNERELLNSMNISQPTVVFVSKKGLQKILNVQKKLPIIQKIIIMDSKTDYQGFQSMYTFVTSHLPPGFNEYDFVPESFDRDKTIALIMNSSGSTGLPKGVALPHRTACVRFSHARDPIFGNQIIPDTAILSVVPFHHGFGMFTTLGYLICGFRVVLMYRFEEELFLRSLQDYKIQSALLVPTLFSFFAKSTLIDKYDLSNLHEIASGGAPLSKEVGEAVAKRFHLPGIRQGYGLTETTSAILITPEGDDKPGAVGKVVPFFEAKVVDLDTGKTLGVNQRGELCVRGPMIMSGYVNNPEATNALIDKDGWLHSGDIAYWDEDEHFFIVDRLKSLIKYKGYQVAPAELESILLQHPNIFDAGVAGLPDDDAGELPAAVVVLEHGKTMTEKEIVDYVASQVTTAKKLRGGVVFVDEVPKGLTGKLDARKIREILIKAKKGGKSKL
# [30] = biological target: Sphingosine 1-phosphate receptor 2 (Homo sapiens, UniProt O95136); experiment: Dose Response Cell Based Assay for Agonists of the S1P2 Receptor of Purchased Analogues. [Related pubchem assays: 729, 843, 854, 736 ]; format: functional
# Sequence of Sphingosine 1-phosphate receptor 2 (O95136 whole entry): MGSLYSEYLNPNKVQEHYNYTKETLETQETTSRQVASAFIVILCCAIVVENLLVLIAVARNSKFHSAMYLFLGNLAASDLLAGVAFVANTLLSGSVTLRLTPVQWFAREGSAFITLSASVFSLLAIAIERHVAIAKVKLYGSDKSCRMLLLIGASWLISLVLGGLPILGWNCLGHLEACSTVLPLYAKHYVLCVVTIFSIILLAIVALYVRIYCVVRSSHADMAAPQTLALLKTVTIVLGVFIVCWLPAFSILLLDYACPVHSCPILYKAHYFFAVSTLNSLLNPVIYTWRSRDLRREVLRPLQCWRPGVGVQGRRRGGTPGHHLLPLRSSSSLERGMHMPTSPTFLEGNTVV
# INS1 = experiment: beta cell apoptosis inhibitors, cytokine rescue, dose response, luminescence, retest (AID 449756); format: functional, cell-based; settings: Rattus norvegicus;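 note: cell death triggered by IL-1 beta plus TNF-alpha plus IFN-gamma mixture; protective hits raise ATP signal compared with cytokine alone wells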
# [31] = A Cell Based Secondary Assay To Explore Cytotoxicity of Compounds that Sensitize Mycobacterium Tuberculosis to Beta-Lactam Antibiotics.; format: functional
# cells [32] = format: functional, cell-based
# cells [33] = format: functional, cell-based; remark: listed apart in the source
# [34] = biological target: Acyl-homoserine lactone acylase PvdQ (Pseudomonas aeruginosa (strain LESB58), UniProt Q9I194); experiment: P. aeruginosa PvdQ acylase inhibitors, dose response, biochemical, fluorescence, plate reader and imaging, cherry-picks (AID 493231)
# Sequence of Acyl-homoserine lactone acylase PvdQ (Q9I194 24-193 limits assumed): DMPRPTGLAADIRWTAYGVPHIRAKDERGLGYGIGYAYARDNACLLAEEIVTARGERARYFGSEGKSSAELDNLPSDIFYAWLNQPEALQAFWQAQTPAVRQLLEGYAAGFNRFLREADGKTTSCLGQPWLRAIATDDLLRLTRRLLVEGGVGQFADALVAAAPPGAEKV
# Sequence of Acyl-homoserine lactone acylase PvdQ (Q9I194 217-762 limits assumed): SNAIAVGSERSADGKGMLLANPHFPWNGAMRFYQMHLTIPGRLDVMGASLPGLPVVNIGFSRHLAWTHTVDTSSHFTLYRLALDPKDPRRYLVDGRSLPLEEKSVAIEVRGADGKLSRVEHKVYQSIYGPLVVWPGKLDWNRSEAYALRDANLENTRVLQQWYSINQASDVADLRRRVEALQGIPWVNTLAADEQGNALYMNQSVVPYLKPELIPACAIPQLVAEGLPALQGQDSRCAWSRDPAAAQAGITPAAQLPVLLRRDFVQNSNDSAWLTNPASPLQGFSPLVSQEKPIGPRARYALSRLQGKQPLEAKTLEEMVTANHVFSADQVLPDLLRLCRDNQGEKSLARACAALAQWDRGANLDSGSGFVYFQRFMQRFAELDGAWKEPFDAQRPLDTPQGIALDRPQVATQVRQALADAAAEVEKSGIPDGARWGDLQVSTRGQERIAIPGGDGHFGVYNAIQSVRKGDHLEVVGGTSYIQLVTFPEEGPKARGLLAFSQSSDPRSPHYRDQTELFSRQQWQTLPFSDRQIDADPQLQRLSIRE
# Wee1-like protein kinase = Wee1-like protein kinase (Homo sapiens, UniProt P30291); experiment: G2/M cell cycle arrest in HeLa, late-stage follow-up, mechanism study for Wee1 degradation inhibitor project, FACS, panel member Wee1 Degradation (AID 2088)
# [35] = biological target: G2/mitotic-specific cyclin-B1 (Homo sapiens, UniProt P14635); experiment: G2/M cell cycle arrest in HeLa, late-stage follow-up, mechanism study for Wee1 degradation inhibitor project, FACS, panel member Cyclin B Degradation (AID 2088)
# Streptococcus = experiment: Group A Streptococcus viability loss, dose response, counter-screen for streptokinase expression inhibitor project, luminescence, BacTiterGlo (AID 1915); format: functional, organism-based;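 note: potency for reduction of bacterial viability or growth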
# [36] = test system: Streptococcus sp. 'group A'; experiment: growth inhibition of control SK(-) GAS strain, dose response, counter-screen for streptokinase expression inhibitor project, luminescence, kanamycin, BacTiterGlo, confirmation (AID 1900); format: functional, organism-based
compound,measurement,setting,value
CN(C)c1ccc(/C=c2\c3cc([N+](=O)[O-])ccc3n3c2cc(-c2ccccc2)[n+]3C)cc1,AC50,[1],14.6 µM (active)
same,AC50,[2],5.6 µM (active)
same,IC50,Genome polyprotein,11.8 µM (active)
same,IC50,Nonstructural protein 1,4.31 µM (active)
same,IC50,[3],31.9 µM (inactive)
same,CC50,[4],1.48 µM (active)
same,IC50,Beta-galactosidase,> 66.6 µM (inactive)
same,AC50,[5],3.3 µM (active)
same,IC50,[6],5.79 µM (active)
same,IC50,[7],28.3 µM (inactive)
same,IC50,[8],6.13 µM (active)
same,CC50,Vero,34.8 µM (active)
COC(=O)c1sc2nc(-c3ccco3)ccc2c1N,IC50,Estrogen receptor beta [9],34.7 µM (not active)
same,IC50,Estrogen receptor,> 50 µM (not active)
same,AC50,[10],2.84 µM (active)
Oc1ccc(-c2n[nH]cc2-c2nc3ccccc3s2)c(O)c1,IC50,[11],> 35 µM (not active)
same,IC50,[12],> 35 µM (not active)
O=C(O)c1ccc(N(c2ccccc2)c2ccccc2)cc1,IC50,[11],> 35 µM (not active)
same,IC50,Genome polyprotein,60.3 µM (active)
same,IC50,[12],31.9 µM (not active)
CCN1/C(=C/c2ccc3cccc(C)c3[n+]2CC)Sc2ccccc21,EC50,[13],< 0.03 µM (active)
same,IC50,Ephrin type-A receptor 4,44.1 µM (active)
same,EC50,[14],18.6 µM (inconclusive)
same,EC50,cells [15],0.031 µM (active)
same,EC50,BJ [16],1.17 µM (inconclusive)
same,EC50,[17],1.77 µM (active)
same,IC50,Nonstructural protein 1,> 100 µM (active)
same,EC50,BJ [18],1.19 µM (active)
same,EC50,[19],13.6 µM (inconclusive)
same,EC50,[20],< 0.1 µM (active)
same,EC50,BJ [21],0.37 µM (inconclusive)
same,IC50,[22],> 50 µM (not active)
same,AC50,Cytochrome P450 3A4,8.91 µM (inconclusive)
same,EC50,[23],5.26 µM (active)
N#CC1=C(SCC(=O)Nc2cccc3cccnc23)NC(=O)C(C#N)C12CCCCC2 (stereo unspecified),EC50,[24],> 20 µM (not active)
same,IC50,Estrogen receptor beta [9],> 50 µM (not active)
same,IC50,Estrogen receptor beta [25],> 50 µM (not active)
same,EC50,[26],> 20 µM (not active)
N=c1ccn(Cc2ccc(Cl)cc2)cc1,AC50,HeLa,16.4 µM (active)
O=C(CCCc1ccccc1)c1ccc2c(c1)OCCO2,EC50,HT-1080,> 50 µM (not active)
same,EC50,[27],< 0.16 µM (active)
same,IC50,[28],> 39.8 µM (not active)
same,EC50,[29],< 0.2 µM (active)
Cc1cc(C(=O)CSc2nnnn2C(C)(C)C)c(C)n1Cc1ccccc1,EC50,[30],> 30 µM (not active)
Cc1c(C(=O)NC2=NCCS2)oc2ccccc12,EC50,HT-1080,> 50 µM (not active)
same,EC50,[29],2.67 µM (active)
COc1nc(Nc2nc(O)c3ccccc3n2)nc2ccc(C)cc12,EC50,BJ [16],2.88 µM (inconclusive)
same,EC50,BJ [18],2.93 µM (active)
same,EC50,[19],2.3 µM (active)
same,EC50,BJ [21],2.6 µM (active)
same,AC50,INS1,1.31 µM (active)
same,CC50,[31],3.83 µM (active)
CC(=O)c1cccc(OCC(=O)c2cc(C)n(Cc3ccccc3)c2C)c1,EC50,[30],> 30 µM (not active)
CCOC(=O)N1CCN(c2ccc(Cl)c(Cl)c2)CC1,EC50,cells [32],> 350 µM (not active)
same,EC50,cells [33],> 350 µM (not active)
same,AC50,[34],25.5 µM (active)
Nc1ccc(OCc2ccccc2)cc1[N+](=O)[O-],IC50,Nonstructural protein 1,58.3 µM (active)
same,AC50,[34],12.5 µM (active)
Cc1cccc(NC(=O)COc2cc(=O)n(C)c3ccccc23)n1,EC50,Wee1-like protein kinase,> 49.7 µM (inactive)
same,EC50,[35],> 49.7 µM (inactive)
C=CC[C@@H](CC(=O)N(CCO)Cc1ccccc1)C(=O)NC[C@H](OC(=O)[C@@H](CC=C)CC(=O)OC(C)(C)C)c1ccccc1,AC50,HeLa,57.2 µM (active)
CN(C)c1nc(N/N=C/c2ccccc2O)nc(Nc2ccc(F)cc2)n1,IC50,[3],> 66.6 µM (inactive)
same,IC50,Beta-galactosidase,> 66.6 µM (inactive)
same,EC50,Streptococcus,5.81 µM (active)
same,EC50,[36],3.62 µM (active)
same,AC50,INS1,3.59 µM (active)
